Experimental data as given in patent publication US20250161299A1, “ORAL PCLX-001 IN THE TREATMENT OF HUMAN CANCER” (PACYLEX PHARMACEUTICALS INC., priority 2022, published 2025).
Where two headings read alike, the source gives them in different places.

Test: Phase I trial of oral PCLX-001: plasma pharmacokinetics, noncompartmental analysis (Phoenix WinNonlin 8.3)
Format: in vivo, human
Conditions: human, plasma
Text: The clinical trial is entitled “Phase I Trial of PCLX-001 in B-cell Non-Hodgkin Lymphoma and Advanced Solid Malignancies” and registered at clinicaltrials.gov as NCT04836195. It is a phase I dose-escalation study of oral PCLX-001, conducted in a multicenter, non-randomized, open-label, non-controlled design. The study is comprised of two parts: Part A (single-agent dose escalation) and Part B (single-agent expansion cohorts).
Patients are to receive daily oral PCLX-001 on 28-day cycles, beginning with a starting dose of 20 mg.
[…] After dosing, the blood samples (volumes 3 mL) were serially collected into heparinized tubes from a right forearm butterfly cannula. All blood fluid specimens were frozen and later assayed using a validated UHPLC-MS detection method.
Noncompartmental pharmacokinetic analysis was performed using Phoenix WinNonlin 8.3 using trapezoidal rule and linear up log down methodology. WinNonlin was allowed to pick optimal terminal phases.
Nonparametric superposition was performed using Phoenix WinNonlin Nonparametric Superposition to predict steady state data based upon Day 1 data for each patient. It utilized the 8- and 24-hour time points for estimation of terminal phase for the purposes of this exercise. We simulated 20 mg daily oral dosing and simulations were conducted out to steady state. Results are show in FIGS. 5, 6, and 7.
In the non-compartmental analysis, Phoenix WinNonlin 8.3 trapezoidal rule was used, with linear up log down method. This allowed WinNonlin to pick optimal terminal phase (WinNonlin will accept Rsq adjusted to >0.7). Additional analysis to assess adequate fie included visual inspection of data, and AUCextrap should be <15%.
Phoenix WinNonlin 8.3 trapezoidal rule. Used linear up log down method. Allowed WinNonlin to pick optimal terminal phase (WinNonlin will accept Rsq adjusted >0.7).
Other analysis to assess adequate fit. Visual inspection of data. AUCextrap should be <15%.

[1] = oral, 140 mg, Table 4, not on Pantoprazole, 140 mg, N 1, Day 1
[2] = oral, 140 mg, Table 5, Mean (CV), on Pantoprazole, 140 mg, N 2, Day 1
[3] = oral, 140 mg, Table 5, Mean (CV), on Pantoprazole, 140 mg, N 2, Day 15
[4] = po, 20 mg, Table 1A, Patient 115-002-001 (Patient 1), Day 1, 20 mg oral daily
[5] = po, 20 mg, Table 1A, Patient 115-002-001 (Patient 1), Day 15, 20 mg oral daily
[6] = po, 20 mg, Table 1A, Patient 115-002-002 (Patient 2), Day 15, 20 mg oral daily
[7] = po, 20 mg, Table 1A, Patient 115-002-004 (Patient 3), Day 1, 20 mg oral daily
[8] = po, 20 mg, Table 1A, Patient 115-002-004 (Patient 3), Day 15, 20 mg oral daily

Cc1c(NS(=O)(=O)c2c(Cl)cc(-c3ccnc(N4CCNCC4)c3)cc2Cl)c(CC(C)C)nn1C [PCLX-001, 2,6-dichloro-N-(3-isobutyl-1,5-dimethyl-1H-pyrazol-4-yl)-4-(2-(piperazin-1-yl)pyridin-4-yl)benzene sulfonamide]
Cmax (oral, 70 mg, Table 4, not on Pantoprazole, 70 mg, N 1, Day 15): 629 ng/mL
AUC(0-t) (oral, 70 mg, Table 4, not on Pantoprazole, 70 mg, N 1, Day 15, read-out: AUClast): 7300 ng·h/mL
Tmax (oral, 70 mg, Table 4, not on Pantoprazole, 70 mg, N 1, Day 15, read-out: Tmax): 4 h
Cmax (oral, 70 mg, Table 5, Mean (CV), on Pantoprazole, 70 mg, N 2, Day 1): 283 ng/mL
AUC(0-t) (oral, 70 mg, Table 5, Mean (CV), on Pantoprazole, 70 mg, N 2, Day 1, read-out: AUClast): 3260 ng·h/mL
Cmax (oral, 70 mg, Table 5, Mean (CV), on Pantoprazole, 70 mg, N 2, Day 15): 386 ng/mL
AUC(0-t) (oral, 70 mg, Table 5, Mean (CV), on Pantoprazole, 70 mg, N 2, Day 15, read-out: AUClast): 5760 ng·h/mL
Tmax (oral, 70 mg, Table 5, median (min, max), on Pantoprazole, 70 mg, N 2, Day 1, read-out: Tmax): 6 h
Tmax (oral, 70 mg, Table 5, median (min, max), on Pantoprazole, 70 mg, N 2, Day 15, read-out: Tmax): 6 h
Cmax (oral, 100 mg, Table 4, Mean (CV), not on Pantoprazole, 100 mg, N 2, Day 15): 1340 ng/mL
Cmax (oral, 100 mg, Table 4, Mean (CV), not on Pantoprazole, 100 mg, N 4, Day 1): 1770 ng/mL
AUC(0-t) (oral, 100 mg, Table 4, Mean, not on Pantoprazole, 100 mg, N 2, Day 15, read-out: AUClast): 17400 ng·h/mL
AUC(0-inf) (oral, 100 mg, Table 4, Mean, not on Pantoprazole, 100 mg, N 4, Day 1): 18000 ng·h/mL
AUC(0-t) (oral, 100 mg, Table 4, Mean, not on Pantoprazole, 100 mg, N 4, Day 1, read-out: AUClast): 15100 ng·h/mL
half-life (oral, 100 mg, Table 4, Mean, not on Pantoprazole, 100 mg, N 4, Day 1, read-out: t½ (converted)): 7.26 h
Tmax (oral, 100 mg, Table 4, median (min, max), not on Pantoprazole, 100 mg, N 2, Day 15, read-out: Tmax): 3 h
Tmax (oral, 100 mg, Table 4, median (min, max), not on Pantoprazole, 100 mg, N 4, Day 1, read-out: Tmax): 2 h
AUC(0-inf) (oral, 100 mg, Table 4, not on Pantoprazole, 100 mg, N 2, Day 15, value from N = 1 patient): 19400 ng·h/mL
half-life (oral, 100 mg, Table 4, not on Pantoprazole, 100 mg, N 2, Day 15, value from N = 1 patient, read-out: t½ (converted)): 7.56 h
Cmax (oral, 140 mg, Table 4, Mean (CV), not on Pantoprazole, 140 mg, N 1, Day 15): 903 ng/mL
AUC(0-inf) (oral, 140 mg, Table 4, Mean, not on Pantoprazole, 140 mg, N 1, Day 15): 10700 ng·h/mL
AUC(0-t) (oral, 140 mg, Table 4, Mean, not on Pantoprazole, 140 mg, N 1, Day 15, read-out: AUClast): 7680 ng·h/mL
Tmax (oral, 140 mg, Table 4, median (min, max), not on Pantoprazole, 140 mg, N 1, Day 15, read-out: Tmax): 1.5 h
AUC(0-inf) [1]: 24200 ng·h/mL
Cmax [1]: 2710 ng/mL
AUC(0-t) (oral, 140 mg, Table 4, not on Pantoprazole, 140 mg, N 1, Day 1, read-out: AUClast): 21200 ng·h/mL
Tmax (oral, 140 mg, Table 4, not on Pantoprazole, 140 mg, N 1, Day 1, read-out: Tmax): 0.5 h
half-life (oral, 140 mg, Table 4, not on Pantoprazole, 140 mg, N 1, Day 1, read-out: t½ (converted)): 7.91 h
half-life (oral, 140 mg, Table 4, not on Pantoprazole, 140 mg, N 1, Day 15, read-out: t½ (converted)): 13.8 h
AUC(0-inf) [2]: 7830 ng·h/mL
Cmax [2]: 1300 ng/mL
AUC(0-t) (oral, 140 mg, Table 5, Mean (CV), on Pantoprazole, 140 mg, N 2, Day 1, read-out: AUClast): 7260 ng·h/mL
AUC(0-inf) [3]: 10700 ng·h/mL
Cmax [3]: 903 ng/mL
AUC(0-t) (oral, 140 mg, Table 5, Mean (CV), on Pantoprazole, 140 mg, N 2, Day 15, read-out: AUClast): 7680 ng·h/mL
half-life (oral, 140 mg, Table 5, Mean, on Pantoprazole, 140 mg, N 2, Day 1, read-out: t½ (converted)): 6.71 h
half-life (oral, 140 mg, Table 5, Mean, on Pantoprazole, 140 mg, N 2, Day 15, read-out: t½ (converted)): 13.8 h
Tmax (oral, 140 mg, Table 5, median (min, max), on Pantoprazole, 140 mg, N 2, Day 1, read-out: Tmax): 1 h
Tmax (oral, 140 mg, Table 5, median (min, max), on Pantoprazole, 140 mg, N 2, Day 15, read-out: Tmax): 1.5 h
Tmax (oral, Example 2, all dose groups, Days 1 and 15, read-out: Tmax, median (range)): 2 h
half-life (oral, Example 2, range across the dose groups (20 to 140 mg), read-out: t1/2): 5.02 to 17.4 h
AUC(0-inf) [4]: 2030 ng·h/mL
Cmax [4]: 353 ng/mL
AUC(0-t) (po, 20 mg, Table 1A, Patient 115-002-001 (Patient 1), Day 1, 20 mg oral daily, read-out: AUClast or AUCtau): 1710 ng·h/mL
half-life (po, 20 mg, Table 1A, Patient 115-002-001 (Patient 1), Day 1, 20 mg oral daily, read-out: Half-life (converted)): 8.54 h
Tmax (po, 20 mg, Table 1A, Patient 115-002-001 (Patient 1), Day 1, 20 mg oral daily, read-out: Tmax): 1 h
AUC(0-inf) [5]: 3500 ng·h/mL
Cmax [5]: 479 ng/mL
AUC(0-t) (po, 20 mg, Table 1A, Patient 115-002-001 (Patient 1), Day 15, 20 mg oral daily, read-out: AUClast or AUCtau): 2730 ng·h/mL
half-life (po, 20 mg, Table 1A, Patient 115-002-001 (Patient 1), Day 15, 20 mg oral daily, read-out: Half-life (converted)): 10.3 h
Tmax (po, 20 mg, Table 1A, Patient 115-002-001 (Patient 1), Day 15, 20 mg oral daily, read-out: Tmax): 1 h
Cmax (po, 20 mg, Table 1A, Patient 115-002-002 (Patient 2), Day 1, 20 mg oral daily): 127 ng/mL
AUC(0-t) (po, 20 mg, Table 1A, Patient 115-002-002 (Patient 2), Day 1, 20 mg oral daily, read-out: AUClast or AUCtau): 1300 ng·h/mL
Tmax (po, 20 mg, Table 1A, Patient 115-002-002 (Patient 2), Day 1, 20 mg oral daily, read-out: Tmax): 4 h
AUC(0-inf) [6]: 2520 ng·h/mL
Cmax [6]: 215 ng/mL
AUC(0-t) (po, 20 mg, Table 1A, Patient 115-002-002 (Patient 2), Day 15, 20 mg oral daily, read-out: AUClast or AUCtau): 2010 ng·h/mL
half-life (po, 20 mg, Table 1A, Patient 115-002-002 (Patient 2), Day 15, 20 mg oral daily, read-out: Half-life (converted)): ~10 h
Tmax (po, 20 mg, Table 1A, Patient 115-002-002 (Patient 2), Day 15, 20 mg oral daily, read-out: Tmax): 2 h
AUC(0-inf) [7]: 1880 ng·h/mL
Cmax [7]: 304 ng/mL
AUC(0-t) (po, 20 mg, Table 1A, Patient 115-002-004 (Patient 3), Day 1, 20 mg oral daily, read-out: AUClast or AUCtau): 1780 ng·h/mL
half-life (po, 20 mg, Table 1A, Patient 115-002-004 (Patient 3), Day 1, 20 mg oral daily, read-out: Half-life (converted)): 5.61 h
Tmax (po, 20 mg, Table 1A, Patient 115-002-004 (Patient 3), Day 1, 20 mg oral daily, read-out: Tmax): 2 h
AUC(0-inf) [8]: 2150 ng·h/mL
Cmax [8]: 295 ng/mL
AUC(0-t) (po, 20 mg, Table 1A, Patient 115-002-004 (Patient 3), Day 15, 20 mg oral daily, read-out: AUClast or AUCtau): 1910 ng·h/mL
